# According to patent US20230322767A1, “ARYL SUBSTITUTED PYRROLO-PYRIDINONES AND THERAPEUTIC USES THEREOF” (Bayer Aktiengesellschaft, priority 2020, published 2023):
# pIC50: −log10 of the molar value.
# Target: wild-type Epidermal Growth Factor Receptor (EGFR) (Homo sapiens (Human), UniProt P00533)
# Assay: WT-EGFR Kinase Assay (TR-FRET, 2 mM ATP)
# Type: biochemical
# Conditions: EGFR Wildtyp 2 mM ATP IC50 [mol/l] (median), median or individual measurements
# Source text: Inhibitory activity of compounds of the present invention against wild-type Epidermal Growth Factor Receptor (EGFR) was quantified employing the TR-FRET based EGFR assay as described in the following paragraphs.
# Recombinant fusion protein of N-terminal Glutathion-S-Transferase (GST) and a fragment of human EGFR (amino acids R669 to A1210), expressed in Sf9 insect cells and purified via affinity chromatography using Glutathion Sepharose as described above, was used as kinase. As substrate for the kinase reaction the biotinylated peptide biotin-Ahx-[…] (C-terminus in amide form) was used which can be purchased e.g. form the company Biosynthan GmbH (Berlin-Buch, Germany).
# For the assay 50 nl of a 100 fold concentrated solution of the test compound in DMSO was pipetted into either a black low volume 384 well microtiter plate or a black 1536 well microtiter plate (both Greiner Bio-One, Frickenhausen, Germany), 2 μL of a solution of EGFR in aqueous assay buffer [50 mM Hepes pH 7.0, 10 mM MgCl2, 1 mM dithiothreitol, 0.5 mM EGTA, 0.3 mM activated sodium ortho-vanadate, 0.005% (w/v) bovine serum albumin, 0.005% (v/v) Tween-20] were added and the mixture was incubated for 15 min at 22° C. to allow pre-binding of the test compounds to the enzyme before the start of the kinase reaction. […] The concentration of EGFR was adjusted depending of the activity of the enzyme lot and was chosen appropriate to have the assay in the linear range, typical concentration was […]. The reaction was stopped by the addition of 3 μL of a solution of HTRF detection reagents (83.3 nM streptavidine-XL665 [Cisbio Bioassays, Codolet, France] and 1.67 nM PT66-Tb-Cryptate, a terbium-cryptate labelled anti-phospho-tyrosine antibody from Cisbio Bioassays [instead of the PT66-Tb-cryptate PT66-Eu-Chelate from Perkin Elmer can also be used]) in an aqueous EDTA-solution (133.3 mM EDTA, 0.2% (w/v) bovine serum albumin in 50 mM HEPES pH 7.5).
# The resulting mixture was incubated 1 h at 22° C. to allow the binding of the biotinylated phosphorylated peptide to the streptavidine-XL665 and the PT66-Tb-Cryptate. Subsequently the amount of phosphorylated substrate was evaluated by measurement of the resonance energy transfer from the PT66-Tb-Cryptate to the streptavidine-XL665. Therefore, the fluorescence emissions at 620 nm and 665 nm after excitation at 337 nm were measured in a HTRF reader, e.g. a Pherastar (BMG Labtechnologies, Offenburg, Germany) or a Viewlux (Perkin-Elmer). The ratio of the emissions at 665 nm and at 622 nm was taken as the measure for the amount of phosphorylated substrate.
# Chain of wild-type Epidermal Growth Factor Receptor (EGFR) (P00533 669-1210): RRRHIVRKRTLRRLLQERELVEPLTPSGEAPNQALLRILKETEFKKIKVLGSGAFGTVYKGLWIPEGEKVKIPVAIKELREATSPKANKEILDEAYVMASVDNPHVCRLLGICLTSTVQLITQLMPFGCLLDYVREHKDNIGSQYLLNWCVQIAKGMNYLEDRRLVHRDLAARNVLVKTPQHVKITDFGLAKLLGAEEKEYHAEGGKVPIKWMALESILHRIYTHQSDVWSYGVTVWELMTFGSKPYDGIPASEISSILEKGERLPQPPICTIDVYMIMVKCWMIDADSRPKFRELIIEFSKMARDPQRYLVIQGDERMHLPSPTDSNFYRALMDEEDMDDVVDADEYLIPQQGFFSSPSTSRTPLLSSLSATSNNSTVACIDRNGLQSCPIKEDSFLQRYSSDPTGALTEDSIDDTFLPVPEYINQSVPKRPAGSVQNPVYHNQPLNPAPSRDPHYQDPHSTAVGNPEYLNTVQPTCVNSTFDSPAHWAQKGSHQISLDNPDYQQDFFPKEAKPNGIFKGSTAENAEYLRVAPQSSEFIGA
row,SMILES,pIC50
1,"CN1CCc2[nH]c(-c3ccnc(NC(=O)C(CC(F)F)c4ccc(F)cc4)c3)c(-c3ccccc3)c2C1=O (racemic) [Example 002, 4,4-difluoro-2-(4-fluorophenyl)-N-[4-(5-methyl-4-oxo-3-phenyl-4,5,6,7-tetrahydro-1H-pyrrolo[3,2-c]pyridin-2-yl)pyridin-2-yl]butanamide]",< 4.70
2,"Cn1ccc2[nH]c(-c3ccnc(NC(=O)C(CC(F)F)c4ccc(F)cc4)c3)c(-c3ccccc3)c2c1=O (racemic) [Example 006, 4,4-difluoro-2-(4-fluorophenyl)-N-[4-(5-methyl-4-oxo-3-phenyl-4,5-dihydro-1H-pyrrolo[3,2-c]pyridin-2-yl)pyridin-2-yl]butanamide]",< 4.70
3,"CN1CCc2[nH]c(-c3ccnc(NC(=O)C(CC(F)F)c4ccc(F)cc4)c3)c(-c3cccnc3)c2C1=O (racemic) [Example 009, 4,4-difluoro-2-(4-fluorophenyl)-N-{4-[5-methyl-4-oxo-3-(pyridin-3-yl)-4,5,6,7-tetrahydro-1H-pyrrolo[3,2-c]pyridin-2-yl]pyridin-2-yl}butanamide]",< 4.70
4,"CC(C(=O)Nc1cc(-c2[nH]c3c(CC(F)(F)F)cn(C)c(=O)c3c2-c2ccccc2)ccn1)c1ccc(F)cc1 (racemic) [Example 014, 2-(4-fluorophenyl)-N-{4-[5-methyl-4-oxo-3-phenyl-7-(2,2,2-trifluoroethyl)-4,5-dihydro-1H-pyrrolo[3,2-c]pyridin-2-yl]pyridin-2-yl}propanamide]",< 4.70
5,"Cn1cc(CC(F)(F)F)c2[nH]c(-c3ccnc(NC(=O)C(CC(F)F)c4ccc(F)cc4)c3)c(-c3ccccc3)c2c1=O (racemic) [Example 018, 4,4-difluoro-2-(4-fluorophenyl)-N-{4-[5-methyl-4-oxo-3-phenyl-7-(2,2,2-trifluoroethyl)-4,5-dihydro-1H-pyrrolo[3,2-c]pyridin-2-yl]pyridin-2-yl}butanamide]",< 4.70
6,"CC(C(=O)Nc1cc(-c2[nH]c3c(CC(F)(F)F)cn(C)c(=O)c3c2-c2ccc(F)cc2)ccn1)c1ccc(F)cc1 (racemic) [Example 022, 2-(4-fluorophenyl)-N-{4-[3-(4-fluorophenyl)-5-methyl-4-oxo-7-(2,2,2-trifluoroethyl)-4,5-dihydro-1H-pyrrolo[3,2-c]pyridin-2-yl]pyridin-2-yl}propanamide]",< 4.70
7,"Cn1cc(CC(F)(F)F)c2[nH]c(-c3ccnc(NC(=O)C(CC(F)F)c4ccc(F)cc4)c3)c(-c3ccc(F)cc3)c2c1=O (racemic) [Example 026, 4,4-difluoro-2-(4-fluorophenyl)-N-{4-[3-(4-fluorophenyl)-5-methyl-4-oxo-7-(2,2,2-trifluoroethyl)-4,5-dihydro-1H-pyrrolo[3,2-c]pyridin-2-yl]pyridin-2-yl}butanamide]",< 4.70
8,"Cc1cn(C)c(=O)c2c(-c3ccc(F)cc3)c(-c3ccnc(NC(=O)C(C)c4ccc(F)cc4)c3)[nH]c12 (racemic) [Example 030, 2-(4-fluorophenyl)-N-{4-[3-(4-fluorophenyl)-5,7-dimethyl-4-oxo-4,5-dihydro-1H-pyrrolo[3,2-c]pyridin-2-yl]pyridin-2-yl}propanamide]",< 4.70
9,"Cc1cn(C)c(=O)c2c(-c3ccc(F)cc3)c(-c3ccnc(NC(=O)C(CC(F)F)c4ccc(F)cc4)c3)[nH]c12 (racemic) [Example 034, 4,4-difluoro-2-(4-fluorophenyl)-N-{4-[3-(4-fluorophenyl)-5,7-dimethyl-4-oxo-4,5-dihydro-1H-pyrrolo[3,2-c]pyridin-2-yl]pyridin-2-yl}butanamide]",< 4.70
10,"Cc1cn(C)c(=O)c2c(-c3ccccc3)c(-c3ccnc(NC(=O)C(C)c4ccc(F)cc4)c3)[nH]c12 (racemic) [Example 038, N-[4-(5,7-dimethyl-4-oxo-3-phenyl-4,5-dihydro-1H-pyrrolo[3,2-c]pyridin-2-yl)pyridin-2-yl]-2-(4-fluorophenyl)propanamide]",< 4.70
11,"Cc1cn(C)c(=O)c2c(-c3ccccc3)c(-c3ccnc(NC(=O)C(CC(F)F)c4ccc(F)cc4)c3)[nH]c12 (racemic) [Example 040, N-[4-(5,7-dimethyl-4-oxo-3-phenyl-4,5-dihydro-1H-pyrrolo[3,2-c]pyridin-2-yl)pyridin-2-yl]-4,4-difluoro-2-(4-fluorophenyl)butanamide]",< 4.70
12,"CC1(C)CNC(=O)c2c1[nH]c(-c1ccnc(NC(=O)C(CC(F)F)c3ccc(F)cc3)c1)c2-c1ccccc1 (racemic) [Example 043, N-[4-(7,7-dimethyl-4-oxo-3-phenyl-4,5,6,7-tetrahydro-1H-pyrrolo[3,2-c]pyridin-2-yl)pyridin-2-yl]-4,4-difluoro-2-(4-fluorophenyl)butanamide]",< 4.70
13,"CC(C(=O)Nc1cc(-c2[nH]c3c(c2-c2ccccc2)C(=O)NCC3(C)C)ccn1)c1ccc(F)cc1 (racemic) [Example 046, N-[4-(7,7-dimethyl-4-oxo-3-phenyl-4,5,6,7-tetrahydro-1H-pyrrolo[3,2-c]pyridin-2-yl)pyridin-2-yl]-2-(4-fluorophenyl)propanamide]",< 4.70
14,"CN1C(=O)c2c([nH]c(-c3ccnc(NC(=O)C(CC(F)F)c4ccc(F)cc4)c3)c2-c2ccccc2)CC12CCC2 (racemic) [Example 049, 4,4-difluoro-2-(4-fluorophenyl)-N-[4-(5′-methyl-4′-oxo-3′-phenyl-1′,4′,5′,7′-tetrahydrospiro[cyclobutane-1,6′-pyrrolo[3,2-c]pyridin]-2′-yl)pyridin-2-yl]butanamide]",< 4.70
15,"CC(C(=O)Nc1cc(-c2[nH]c3c(c2-c2ccccc2)C(=O)N(C)C2(CCC2)C3)ccn1)c1ccc(F)cc1 (racemic) [Example 052, 2-(4-fluorophenyl)-N-[4-(5′-methyl-4′-oxo-3′-phenyl-1′,4′,5′,7′-tetrahydrospiro[cyclobutane-1,6′-pyrrolo[3,2-c]pyridin]-2′-yl)pyridin-2-yl]propanamide]",< 4.70
16,"CN1CC(CC2CC2)c2[nH]c(-c3ccnc(NC(=O)Cc4ccc(F)cc4)c3)c(-c3ccccc3)c2C1=O (racemic) [Example 055, N-{4-[7-(cyclopropylmethyl)-5-methyl-4-oxo-3-phenyl-4,5,6,7-tetrahydro-1H-pyrrolo[3,2-c]pyridin-2-yl]pyridin-2-yl}-2-(4-fluorophenyl)acetamide]",5.46
17,"CC(C(=O)Nc1cc(-c2[nH]c3c(CC4CC4)cn(C)c(=O)c3c2-c2ccccc2)ccn1)c1ccc(F)cc1 (racemic) [Example 058, N-{4-[7-(cyclopropylmethyl)-5-methyl-4-oxo-3-phenyl-4,5-dihydro-1H-pyrrolo[3,2-c]pyridin-2-yl]pyridin-2-yl}-2-(4-fluorophenyl)propanamide]",< 4.70
18,"Cn1cc(CC2CC2)c2[nH]c(-c3ccnc(NC(=O)C(CC(F)F)c4ccc(F)cc4)c3)c(-c3ccccc3)c2c1=O (racemic) [Example 060, N-{4-[7-(cyclopropylmethyl)-5-methyl-4-oxo-3-phenyl-4,5-dihydro-1H-pyrrolo[3,2-c]pyridin-2-yl]pyridin-2-yl}-4,4-difluoro-2-(4-fluorophenyl)butanamide]",< 4.70
19,"CN1CC(CC2CC2)c2[nH]c(-c3ccnc(NC(=O)Cc4ccc(F)cc4)c3)c(-c3ccc(F)cc3)c2C1=O (racemic) [Example 061, N-{4-[7-(cyclopropylmethyl)-3-(4-fluorophenyl)-5-methyl-4-oxo-4,5,6,7-tetrahydro-1H-pyrrolo[3,2-c]pyridin-2-yl]pyridin-2-yl}-2-(4-fluorophenyl)acetamide]",6.09
